Experimental data published in publication PMC6934184, “Selective DNA-PKcs inhibition extends the therapeutic index of localized radiotherapy and chemotherapy” (The Journal of Clinical Investigation, 2019).

Target: T1, ALK R1275Q (Homo sapiens, UniProt Q9UM73, R1275Q)
T1 construct: purchased Thermo Fisher Scientific (Life Technologies) SelectScreen
Assay: SelectScreen LanthaScreen
Type: binding
Settings: read-out: % displacement
How it was run: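 Percent values come from Thermo SelectScreen profiling of NU5455, combining activity and binding assays. CSF1R was run in Z'LYTE format at Km app ATP, and CAMK1 in Adapta format with ATP listed at 10.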

T1 sequence (Q9UM73 19-1620 R1275Q): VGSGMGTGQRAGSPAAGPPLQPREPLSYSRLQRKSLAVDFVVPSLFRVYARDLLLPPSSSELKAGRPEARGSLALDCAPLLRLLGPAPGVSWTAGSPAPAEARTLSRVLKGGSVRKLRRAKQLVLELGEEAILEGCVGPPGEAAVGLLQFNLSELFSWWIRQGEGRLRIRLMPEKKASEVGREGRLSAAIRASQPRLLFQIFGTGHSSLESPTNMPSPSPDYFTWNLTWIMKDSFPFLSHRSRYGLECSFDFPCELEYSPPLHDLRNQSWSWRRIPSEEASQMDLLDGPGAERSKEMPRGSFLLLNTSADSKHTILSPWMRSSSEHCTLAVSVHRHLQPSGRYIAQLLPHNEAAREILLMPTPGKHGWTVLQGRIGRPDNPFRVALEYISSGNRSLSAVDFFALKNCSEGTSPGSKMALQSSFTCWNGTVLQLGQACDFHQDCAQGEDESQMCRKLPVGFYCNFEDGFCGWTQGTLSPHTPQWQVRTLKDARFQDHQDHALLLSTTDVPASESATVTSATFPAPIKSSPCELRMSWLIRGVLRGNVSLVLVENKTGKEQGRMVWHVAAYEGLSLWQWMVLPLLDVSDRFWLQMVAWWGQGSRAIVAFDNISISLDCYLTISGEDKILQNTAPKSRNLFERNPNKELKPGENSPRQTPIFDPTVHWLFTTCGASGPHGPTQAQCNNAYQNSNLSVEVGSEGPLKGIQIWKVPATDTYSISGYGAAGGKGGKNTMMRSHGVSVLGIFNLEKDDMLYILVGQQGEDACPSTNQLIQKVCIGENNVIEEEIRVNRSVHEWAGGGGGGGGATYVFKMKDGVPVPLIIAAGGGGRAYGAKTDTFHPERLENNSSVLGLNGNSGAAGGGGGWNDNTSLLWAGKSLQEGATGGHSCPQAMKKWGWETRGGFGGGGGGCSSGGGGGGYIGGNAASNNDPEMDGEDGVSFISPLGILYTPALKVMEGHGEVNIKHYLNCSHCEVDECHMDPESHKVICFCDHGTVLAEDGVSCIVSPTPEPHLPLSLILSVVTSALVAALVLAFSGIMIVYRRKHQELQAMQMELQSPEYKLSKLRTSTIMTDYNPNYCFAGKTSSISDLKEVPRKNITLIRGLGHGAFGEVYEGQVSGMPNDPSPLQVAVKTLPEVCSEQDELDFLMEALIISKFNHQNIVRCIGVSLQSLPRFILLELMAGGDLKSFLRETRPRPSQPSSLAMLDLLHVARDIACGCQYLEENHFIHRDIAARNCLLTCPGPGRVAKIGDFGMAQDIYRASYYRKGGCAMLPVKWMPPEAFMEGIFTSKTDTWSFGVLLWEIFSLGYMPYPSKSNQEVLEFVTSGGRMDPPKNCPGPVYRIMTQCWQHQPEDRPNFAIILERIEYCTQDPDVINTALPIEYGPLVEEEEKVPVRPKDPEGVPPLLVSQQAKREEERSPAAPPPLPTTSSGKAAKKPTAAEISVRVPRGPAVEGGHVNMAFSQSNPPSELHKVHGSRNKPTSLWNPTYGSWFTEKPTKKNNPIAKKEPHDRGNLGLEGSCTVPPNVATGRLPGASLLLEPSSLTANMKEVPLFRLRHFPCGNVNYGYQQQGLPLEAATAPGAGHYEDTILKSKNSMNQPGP

CN(C(=O)CN1CCOCC1)c1ccc2sc3c(-c4cccc5c(=O)cc(N6CC7CCC(C6)O7)oc45)cccc3c2c1 [NU5455]
inhibition at 1 µM: 2%
